Converted amounts (≈) assume the structure as drawn. The source made the active and inactive calls. The calls are words filed in the database; no cut-off is given here.
Assays:
[1] = test system: Rattus norvegicus; experiment: Efficacy against Streptococcus pneumoniae Erm in Sprague-Dawley rat lung infection model at 100 mg/kg; type: functional, organism-based; design: dose 100 mg/kg
[2] = test system: Streptococcus pneumoniae; experiment: Antibacterial activity against Streptococcus pneumoniae Erm 10279; type: functional
[3] = test system: Streptococcus pneumoniae; experiment: Antibacterial activity against Streptococcus pneumoniae Mef 1566; type: functional
[4] = test system: Streptococcus pneumoniae; experiment: Antibacterial activity against Streptococcus pneumoniae Mef 10095; type: functional
[5] = test system: Streptococcus pneumoniae; experiment: Antibacterial activity against Streptococcus pneumoniae Mef 9142; type: functional
[6] = Clearance in Sprague-Dawley rat at 5 mg/kg, iv and 15 mg/kg, po; type: ADME, organism-based; conditions: in vivo
[7] = test system: Streptococcus pneumoniae; experiment: Antibacterial activity against Streptococcus pneumoniae Mef 4331; type: functional
[8] = test system: Streptococcus pneumoniae; experiment: Antibacterial activity against Streptococcus pneumoniae Erm 5399; type: functional
[9] = test system: Streptococcus pneumoniae; experiment: Antibacterial activity against Streptococcus pneumoniae Mef 3855; type: functional
[10] = test system: Streptococcus pneumoniae; experiment: Antibacterial activity against Streptococcus pneumoniae Erm 6396; type: functional
[11] = test system: Streptococcus pneumoniae; experiment: Antibacterial activity against Streptococcus pneumoniae Mef 5654; type: functional
[12] = test system: Streptococcus pneumoniae; experiment: Antibacterial activity against Streptococcus pneumoniae Erm 5354; type: functional
[13] = test system: Enterococcus faecalis; experiment: Antibacterial activity against Enterococcus faecalis 29212; type: functional
[14] = test system: Streptococcus pneumoniae; experiment: Antibacterial activity against Streptococcus pneumoniae Mef 983; type: functional
[15] = test system: Streptococcus pneumoniae; experiment: Antibacterial activity against Streptococcus pneumoniae 280-962; type: functional
[16] = test system: Staphylococcus epidermidis; experiment: Antibacterial activity against Staphylococcus epidermidis f50654; type: functional
[17] = test system: Streptococcus pneumoniae; experiment: Antibacterial activity against Streptococcus pneumoniae Mef 5649; type: functional
[18] = test system: Streptococcus pneumoniae; experiment: Antibacterial activity against Streptococcus pneumoniae Erm 4290; type: functional
[19] = test system: Streptococcus pneumoniae; experiment: Antibacterial activity against Streptococcus pneumoniae 49619; type: functional
[20] = test system: Staphylococcus epidermidis; experiment: Antibacterial activity against Staphylococcus epidermidis 14990; type: functional
[21] = test system: Streptococcus pyogenes; experiment: Antibacterial activity against Streptococcus pyogenes 8668; type: functional
[22] = test system: Streptococcus pneumoniae; experiment: Antibacterial activity against Streptococcus pneumoniae Erm 8339; type: functional
[23] = test system: Haemophilus influenzae; experiment: Antibacterial activity against Haemophilus influenzae 2762; type: functional
[24] = test system: Streptococcus pneumoniae; experiment: Antibacterial activity against Streptococcus pneumoniae Mef 41; type: functional
[25] = test system: Streptococcus pneumoniae; experiment: Antibacterial activity against Streptococcus pneumoniae Mef S 3427; type: functional
[26] = test system: Streptococcus pneumoniae; experiment: Antibacterial activity against Streptococcus pneumoniae Erm 3120; type: functional
[27] = test system: Streptococcus pneumoniae; experiment: Antibacterial activity against Streptococcus pneumoniae Erm S 4085; type: functional
[28] = Oral bioavailability in Sprague-Dawley rat at 100 mg/kg, po; type: ADME, organism-based; conditions: in vivo
[29] = test system: Streptococcus pneumoniae; experiment: Antibacterial activity against Streptococcus pneumoniae Erm 2218; type: functional
[30] = Volume of distribution in Sprague-Dawley rat at 5 mg/kg, iv and 15 mg/kg, po; type: ADME, organism-based; conditions: in vivo, read-out: Vdss
[31] = test system: Streptococcus pneumoniae; experiment: Antibacterial activity against Streptococcus pneumoniae Mef 3449; type: functional
[32] = test system: Streptococcus pneumoniae; experiment: Antibacterial activity against Streptococcus pneumoniae Mef 1790; type: functional
[33] = test system: Streptococcus pneumoniae; experiment: Antibacterial activity against Streptococcus pneumoniae Mef 2880; type: functional
[34] = test system: Streptococcus pneumoniae; experiment: Antibacterial activity against Streptococcus pneumoniae Mef 953; type: functional
[35] = test system: Rattus norvegicus; experiment: Efficacy against Haemophilus influenzae in Sprague-Dawley rat lung infection model at 100 mg/kg; type: functional, organism-based; design: dose 100 mg/kg
[36] = test system: Staphylococcus aureus; experiment: Antibacterial activity against Staphylococcus aureus 29213; type: functional
[37] = test system: Streptococcus pneumoniae; experiment: Antibacterial activity against Streptococcus pneumoniae Erm 6849; type: functional
[38] = test system: Streptococcus pneumoniae; experiment: Antibacterial activity against Streptococcus pneumoniae Erm 4589; type: functional
[39] = test system: Streptococcus pneumoniae; experiment: Antibacterial activity against Streptococcus pneumoniae Erm 8919; type: functional
[40] = test system: Streptococcus pneumoniae; experiment: Antibacterial activity against Streptococcus pneumoniae Erm 5554; type: functional
[41] = test system: Streptococcus pneumoniae; experiment: Antibacterial activity against Streptococcus pneumoniae Erm S 4297; type: functional
[42] = test system: Streptococcus pneumoniae; experiment: Antibacterial activity against Streptococcus pneumoniae Mef S 3435; type: functional
[43] = test system: Streptococcus pneumoniae; experiment: Antibacterial activity against Streptococcus pneumoniae Mef 2382; type: functional
[44] = test system: Streptococcus pneumoniae; experiment: Antibacterial activity against Streptococcus pneumoniae Mef 9959; type: functional
[45] = test system: Streptococcus pneumoniae; experiment: Antibacterial activity against Streptococcus pneumoniae Mef 6966; type: functional
[46] = test system: Streptococcus pneumoniae; experiment: Antibacterial activity against Streptococcus pneumoniae 297-749; type: functional
[47] = test system: Streptococcus pneumoniae; experiment: Antibacterial activity against Streptococcus pneumoniae Erm 8947; type: functional
[48] = Lung half life in Sprague-Dawley rat at 15 mg/kg, po; type: ADME, organism-based; design: dose 15 mg/kg, route oral
[49] = test system: Streptococcus pneumoniae; experiment: Antibacterial activity against Streptococcus pneumoniae Erm 8257; type: functional
[50] = test system: Streptococcus pneumoniae; experiment: Antibacterial activity against Streptococcus pneumoniae Erm 867; type: functional
[51] = test system: Enterococcus faecalis; experiment: Antibacterial activity against Enterococcus faecalis bc11148-2; type: functional
[52] = test system: Streptococcus pneumoniae; experiment: Antibacterial activity against Streptococcus pneumoniae Erm 6388; type: functional
[53] = test system: Streptococcus pneumoniae; experiment: Antibacterial activity against Streptococcus pneumoniae Erm 5590; type: functional
[54] = test system: Streptococcus pneumoniae; experiment: Antibacterial activity against Streptococcus pneumoniae Erm 7985; type: functional
[55] = test system: Streptococcus pneumoniae; experiment: Antibacterial activity against Streptococcus pneumoniae Erm 5415; type: functional
[56] = test system: Streptococcus pneumoniae; experiment: Antibacterial activity against Streptococcus pneumoniae Mef 1556; type: functional
[57] = test system: Rattus norvegicus; experiment: Efficacy against Streptococcus pneumoniae Mef in Sprague-Dawley rat lung infection model at 100 mg/kg; type: functional, organism-based; design: dose 100 mg/kg
[58] = test system: Streptococcus pneumoniae; experiment: Antibacterial activity against Streptococcus pneumoniae Mef 4126; type: functional
[59] = test system: Staphylococcus aureus; experiment: Antibacterial activity against Staphylococcus aureus 33591; type: functional
[60] = test system: Haemophilus influenzae; experiment: Antibacterial activity against Haemophilus influenzae 49247; type: functional
[61] = Lung-to-plasma AUC ratio in Sprague-Dawley rat at 5 mg/kg, iv; type: ADME, organism-based; design: dose 5 mg/kg, route intravenous; conditions: lung and plasma

Question: With CC[C@H]1OC(=O)[C@H](C)C(=O)[C@H](C)[C@@H](O[C@@H]2O[C@H](C)C[C@H](N(C)C)[C@H]2O)[C@](C)(OC)C[C@@H](C)C(=O)[C@H](C)[C@H]2N(CCCCn3cnc(-c4cccnc4)c3)C(=O)O[C@]12C [TELITHROMYCIN] as the molecule, how does the Activity [1] read?
Answer: inactive

Question: What about the MIC [2] of the same molecule?
Answer: 0.025 µg/mL (≈ 0.0308 µM)

Question: What about the MIC [3] of the same molecule?
Answer: 0.5 µg/mL (≈ 0.616 µM)

Question: And the MIC [4]?
Answer: 0.06 µg/mL (≈ 0.0739 µM)

Question: What about the MIC [5] of the same molecule?
Answer: 0.5 µg/mL (≈ 0.616 µM)

Question: And the clearance [6]?
Answer: 100 mL/min/kg

Question: And the MIC [7]?
Answer: 1 µg/mL (≈ 1.23 µM)

Question: And the MIC [8]?
Answer: ≤ 0.013 µg/mL

Question: What about the MIC [9] of the same molecule?
Answer: 0.25 µg/mL (≈ 0.308 µM)

Question: What about the MIC [10] of the same molecule?
Answer: 0.1 µg/mL (≈ 0.123 µM)

Question: What about the MIC [11] of the same molecule?
Answer: 0.5 µg/mL (≈ 0.616 µM)

Question: What about the MIC [12] of the same molecule?
Answer: 0.025 µg/mL (≈ 0.0308 µM)

Question: What about the MIC [13] of the same molecule?
Answer: ≤ 0.05 µg/mL

Question: And the MIC [14]?
Answer: 0.5 µg/mL (≈ 0.616 µM)

Question: What about the MIC [15] of the same molecule?
Answer: ≤ 0.05 µg/mL

Question: What about the MIC [16] of the same molecule?
Answer: 0.1 µg/mL (≈ 0.123 µM)

Question: What about the MIC [17] of the same molecule?
Answer: 0.5 µg/mL (≈ 0.616 µM)

Question: What about the MIC [18] of the same molecule?
Answer: ≤ 0.013 µg/mL

Question: And the MIC [19]?
Answer: ≤ 0.05 µg/mL

Question: What about the MIC [20] of the same molecule?
Answer: 0.1 µg/mL (≈ 0.123 µM)

Question: What about the MIC [21] of the same molecule?
Answer: ≤ 0.05 µg/mL

Question: What about the MIC [22] of the same molecule?
Answer: 0.78 µg/mL (≈ 0.961 µM)

Question: And the MIC [23]?
Answer: 0.4 µg/mL (≈ 0.493 µM)

Question: What about the MIC [24] of the same molecule?
Answer: 0.13 µg/mL (≈ 0.16 µM)

Question: And the MIC [25]?
Answer: 0.13 µg/mL (≈ 0.16 µM)

Question: And the MIC [26]?
Answer: 0.1 µg/mL (≈ 0.123 µM)

Question: What about the MIC [27] of the same molecule?
Answer: ≤ 0.013 µg/mL

Question: And the bioavailability [28]?
Answer: 84%

Question: What about the MIC [29] of the same molecule?
Answer: 0.025 µg/mL (≈ 0.0308 µM)

Question: What about the Vd [30] of the same molecule?
Answer: 5 L/kg

Question: And the MIC [31]?
Answer: 0.25 µg/mL (≈ 0.308 µM)

Question: And the MIC [32]?
Answer: 0.5 µg/mL (≈ 0.616 µM)

Question: What about the MIC [33] of the same molecule?
Answer: 0.13 µg/mL (≈ 0.16 µM)

Question: What about the MIC [34] of the same molecule?
Answer: 0.13 µg/mL (≈ 0.16 µM)

Question: What about the Activity [35] of the same molecule?
Answer: inactive

Question: And the MIC [36]?
Answer: 0.1 µg/mL (≈ 0.123 µM)

Question: And the MIC [37]?
Answer: 0.2 µg/mL (≈ 0.246 µM)

Question: What about the MIC [38] of the same molecule?
Answer: 0.025 µg/mL (≈ 0.0308 µM)

Question: And the MIC [39]?
Answer: 0.025 µg/mL (≈ 0.0308 µM)

Question: What about the MIC [40] of the same molecule?
Answer: 0.2 µg/mL (≈ 0.246 µM)

Question: And the MIC [41]?
Answer: 0.1 µg/mL (≈ 0.123 µM)

Question: What about the MIC [42] of the same molecule?
Answer: 0.06 µg/mL (≈ 0.0739 µM)

Question: What about the MIC [43] of the same molecule?
Answer: 0.25 µg/mL (≈ 0.308 µM)

Question: And the MIC [44]?
Answer: 0.25 µg/mL (≈ 0.308 µM)

Question: What about the MIC [45] of the same molecule?
Answer: 0.25 µg/mL (≈ 0.308 µM)

Question: And the MIC [46]?
Answer: ≤ 0.05 µg/mL

Question: What about the MIC [47] of the same molecule?
Answer: 0.1 µg/mL (≈ 0.123 µM)

Question: And the half-life [48]?
Answer: 1.3 h

Question: And the MIC [49]?
Answer: ≤ 0.013 µg/mL

Question: And the MIC [50]?
Answer: 0.025 µg/mL (≈ 0.0308 µM)

Question: What about the MIC [51] of the same molecule?
Answer: 0.4 µg/mL (≈ 0.493 µM)

Question: What about the MIC [52] of the same molecule?
Answer: 0.78 µg/mL (≈ 0.961 µM)

Question: And the MIC [53]?
Answer: ≤ 0.013 µg/mL

Question: And the MIC [54]?
Answer: ≤ 0.013 µg/mL

Question: What about the MIC [55] of the same molecule?
Answer: 0.025 µg/mL (≈ 0.0308 µM)

Question: What about the MIC [56] of the same molecule?
Answer: 0.13 µg/mL (≈ 0.16 µM)

Question: And the Activity [57]?
Answer: inactive

Question: What about the MIC [58] of the same molecule?
Answer: 0.06 µg/mL (≈ 0.0739 µM)

Question: And the MIC [59]?
Answer: > 50 µg/mL

Question: What about the MIC [60] of the same molecule?
Answer: 3.13 µg/mL (≈ 3.85 µM)

Question: What about the Kp [61] of the same molecule?
Answer: 16
